Source: patent publication US12398154B2, “Azaquinazoline pan-KRas inhibitors” (Mirati Therapeutics, Inc., priority 2020, dated 2025)

Legend:
pERK in ASPC1 cells = test: Inhibition of KRas phosphorylation of ERK (Cisbio HTRF pERK assay); details: Homo sapiens, ASPC1, read-out: Inhibition (HTRF IC50) of KRas-mediated Phosphorylation of ERK, AsPC-1
KRas G12D = KRas G12D (Homo sapiens, UniProt P01116, G12D); test: biochemical;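 further: TR-FRET displacement binding assay on KRas, read after a one-hour incubation at room temperature, IC50 fitted from percent-of-control values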
KRas G12D, sequence (P01116 1-169 isoform P01116-2 G12D): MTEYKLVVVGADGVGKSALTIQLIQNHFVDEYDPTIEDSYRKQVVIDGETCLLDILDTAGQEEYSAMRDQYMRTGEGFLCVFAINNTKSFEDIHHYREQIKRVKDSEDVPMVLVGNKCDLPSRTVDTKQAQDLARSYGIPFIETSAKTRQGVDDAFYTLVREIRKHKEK
Experimental: (§1) The ability of a compound to bind to KRas was measured using a TR-FRET displacement assay. […] After a 60-minute incubation at room temperature, the reaction was measured using a BMG LABTECH CLARIO star Plus via TR-FRET. […] The POC values were fit to a 4-parameter IC50 equation and the IC50 value reported.

pERK in HCT116 cells = test: Inhibition of KRas phosphorylation of ERK (Cisbio HTRF pERK assay); details: Homo sapiens, HCT-116, read-out: Inhibition (HTRF IC50) of KRas-mediated Phosphorylation of ERK, HCT116
KRas G12R = KRas G12R (Homo sapiens, UniProt P01116, G12R); test: biochemical;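 further: TR-FRET displacement assay of compound binding to KRas, read after one hour at room temperature, potency from a four-parameter fit of percent-of-control values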
KRas G12R, sequence (P01116 1-169 isoform P01116-2 G12R): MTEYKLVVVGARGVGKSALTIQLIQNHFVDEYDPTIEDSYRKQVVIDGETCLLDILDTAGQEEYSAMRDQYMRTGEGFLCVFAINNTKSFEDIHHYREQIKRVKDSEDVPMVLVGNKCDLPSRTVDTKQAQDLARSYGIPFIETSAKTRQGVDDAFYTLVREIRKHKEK
Experimental: as §1

KRas G12V = KRas G12V (Homo sapiens, UniProt P01116, G12V); test: biochemical;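 further: KRas binding measured by TR-FRET displacement at room temperature, IC50 fitted from percent of control values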
KRas G12V, sequence (P01116 1-169 isoform P01116-2 G12V): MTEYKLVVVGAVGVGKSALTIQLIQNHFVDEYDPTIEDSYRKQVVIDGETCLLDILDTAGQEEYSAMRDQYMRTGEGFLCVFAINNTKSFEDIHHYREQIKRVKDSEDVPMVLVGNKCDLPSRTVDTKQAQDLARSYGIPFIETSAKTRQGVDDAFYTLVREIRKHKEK
Experimental: as §1

pERK in MKN1 cells = test: Inhibition of KRas phosphorylation of ERK (Cisbio HTRF pERK assay); details: Homo sapiens, MKN-1, 3 h, read-out: Inhibition (HTRF IC50) of KRas-mediated Phosphorylation of ERK, MKN1
pERK in PSN1 cells = test: as above; details: Homo sapiens, PSN1, 3 h, read-out: Inhibition (HTRF IC50) of KRas-mediated Phosphorylation of ERK, PSN1
KRas WT = KRas WT (Homo sapiens, UniProt P01116); test: biochemical;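 further: binding to KRas read as TR-FRET displacement after a one-hour room-temperature incubation, IC50 derived from percent-of-control values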
KRas WT, sequence (P01116 1-169 isoform P01116-2): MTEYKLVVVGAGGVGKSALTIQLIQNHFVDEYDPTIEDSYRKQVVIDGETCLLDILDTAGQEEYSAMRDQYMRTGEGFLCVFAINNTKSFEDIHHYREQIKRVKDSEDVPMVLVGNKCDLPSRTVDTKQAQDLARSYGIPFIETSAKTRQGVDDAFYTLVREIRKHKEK
Experimental: as §1

KRas G12C = KRas G12C (Homo sapiens, UniProt P01116, G12C); test: biochemical;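 further: binding to KRas assessed by TR-FRET displacement after one hour incubation at room temperature, potency fitted from percent-of-control values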
KRas G12C, sequence (P01116 1-169 isoform P01116-2 G12C): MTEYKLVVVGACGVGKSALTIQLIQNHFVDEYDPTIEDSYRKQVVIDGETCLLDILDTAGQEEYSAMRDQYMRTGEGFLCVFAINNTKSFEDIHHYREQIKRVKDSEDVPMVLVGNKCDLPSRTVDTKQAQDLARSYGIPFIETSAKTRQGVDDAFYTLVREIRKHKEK
Experimental: as §1

pERK in H727 cells = test: Inhibition of KRas phosphorylation of ERK (Cisbio HTRF pERK assay); details: Homo sapiens, NCI-H727, read-out: Inhibition (HTRF IC50) of KRas-mediated Phosphorylation of ERK, H727

IC50 (pERK in ASPC1 cells)	IC50 (KRas G12D)	IC50 (pERK in HCT116 cells)	IC50 (KRas G12R)	IC50 (KRas G12V)	IC50 (pERK in MKN1 cells)	IC50 (pERK in PSN1 cells)	IC50 (KRas WT)	IC50 (KRas G12C)	IC50 (pERK in H727 cells)	Compound
4.07 µM	5 nM	3.84 µM	≤ 2 nM	≤ 2 nM	103 nM	≥ 10 µM				CCc1c(F)ccc2cc(O)cc(-c3ncc4c(NCC5CC(=O)N5)nc(OC[C@@]56CCCN5C[C@H](F)C6)nc4c3F)c12 (single isomer, unassigned) [Example 373]
1.72 µM	9 nM	1.28 µM	18 nM	6 nM	271 nM	≥ 10 µM	9 nM	9 nM		CCc1c(F)ccc2cc(O)cc(-c3ncc4c(N5CCC[C@]6(C5)C[C@](C)(O)C6)nc(OCC56CCCN5CCC6)nc4c3F)c12 [Example 328, trans-6-(7-(8-ethyl-7-fluoro-3-hydroxynaphthalen-1-yl)-8-fluoro-2-((hexahydro-1H-pyrrolizin-7a-yl)methoxy)pyrido[4,3-d]pyrimidin-4-yl)-2-methyl-6-azaspiro[3.5]nonan-2-ol]
≥ 20 µM	6600 nM	≥ 20 µM	3380 nM	1780 nM	≥ 10000 nM	≥ 10 µM	1030 nM	2620 nM		CCc1c(F)ccc2cc(O)cc(-c3ncc4c(N5CCC[C@]6(C5)C[C@@](C)(O)C6)nc(OCC56CCCN5CCC6)nc4c3F)c12 [Example 329, cis-6-(7-(8-ethyl-7-fluoro-3-hydroxynaphthalen-1-yl)-8-fluoro-2-((hexahydro-1H-pyrrolizin-7a-yl)methoxy)pyrido[4,3-d]pyrimidin-4-yl)-2-methyl-6-azaspiro[3.5]nonan-2-ol]
0.603 µM	≤ 2 nM	9.19 µM	5 nM	≤ 2 nM	425 nM	≥ 10 µM			2110 nM	CCc1c(F)ccc2cc(O)cc(-c3ncc4c(N5CCCn6nc(C(=O)N(C)C)cc6C5)nc(OCC5(CN(C)C)CC5)nc4c3F)c12 [Example 333, 5-(2-((1-((dimethylamino)methyl)cyclopropyl)methoxy)-7-(8-ethyl-7-fluoro-3-hydroxynaphthalen-1-yl)-8-fluoropyrido[4,3-d]pyrimidin-4-yl)-N,N-dimethyl-5,6,7,8-tetrahydro-4H-pyrazolo[1,5-a][1,4]diazepine-2-carboxamide]
0.514 µM	3 nM	0.438 µM	5 nM	3 nM	49 nM	1.84 µM			395 nM	CCc1c(F)ccc2cc(O)cc(-c3ncc4c(N5CCOCC6(C5)NC(=O)NC6=O)nc(OC[C@@]56CCCN5C[C@H](F)C6)nc4c3F)c12 (stereo partly drawn) [Example 337, 10-(7-(8-ethyl-7-fluoro-3-hydroxynaphthalen-1-yl)-8-fluoro-2-(((2R,7aS)-2-fluorohexahydro-1H-pyrrolizin-7a-yl)methoxy)pyrido[4,3-d]pyrimidin-4-yl)-7-oxa-1,3,10-triazaspiro[4.6]undecane-2,4-dione]
≥ 20 µM	7 nM	9.34 µM	5 nM	≤ 2 nM	387 nM	≥ 10 µM				CCc1c(F)ccc2cc(O)cc(-c3ncc4c(NCC5CCC(=O)N5)nc(OC[C@@]56CCCN5C[C@H](F)C6)nc4c3F)c12 (stereo partly drawn) [Example 371, 5-(((7-(8-ethyl-7-fluoro-3-hydroxynaphthalen-1-yl)-8-fluoro-2-(((2R,7aS)-2-fluorohexahydro-1H-pyrrolizin-7a-yl)methoxy)pyrido[4,3-d]pyrimidin-4-yl)amino)methyl)pyrrolidin-2-one]
≥ 10 µM	104 nM	≥ 10 µM	25 nM	14 nM						CCc1c(F)ccc2cc(O)cc(-c3ncc4c(NCCN5CC(=O)NC5=O)nc(OC[C@@]56CCCN5C[C@H](F)C6)nc4c3F)c12 [Example 378, 1-(2-((7-(8-ethyl-7-fluoro-3-hydroxynaphthalen-1-yl)-8-fluoro-2-(((2R,7aS)-2-fluorohexahydro-1H-pyrrolizin-7a-yl)methoxy)pyrido[4,3-d]pyrimidin-4-yl)amino)ethyl)imidazolidine-2,4-dione]
≥ 20 µM	111 nM	≥ 20 µM	34 nM	14 nM	≥ 10000 nM	≥ 10 µM	26 nM	21 nM		CCc1c(F)ccc2cc(O)cc(-c3ncc4c(NCCN5C(=O)CNC5=O)nc(OC[C@@]56CCCN5C[C@H](F)C6)nc4c3F)c12 [Example 379, 3-(2-((7-(8-ethyl-7-fluoro-3-hydroxynaphthalen-1-yl)-8-fluoro-2-(((2R,7aS)-2-fluorohexahydro-1H-pyrrolizin-7a-yl)methoxy)pyrido[4,3-d]pyrimidin-4-yl)amino)ethyl)imidazolidine-2,4-dione]
≥ 20 µM	275 nM	3.21 µM	71 nM	51 nM	1100 nM	≥ 10 µM	18 nM	54 nM		CCc1c(F)ccc2cc(O)cc(-c3ncc4c(N5CCN6C(=O)NCC6C5)nc(OC[C@@]56CCCN5C[C@H](F)C6)nc4c3F)c12 (stereo partly drawn) [Example 380, 7-(7-(8-ethyl-7-fluoro-3-hydroxynaphthalen-1-yl)-8-fluoro-2-(((2R,7aS)-2-fluorohexahydro-1H-pyrrolizin-7a-yl)methoxy)pyrido[4,3-d]pyrimidin-4-yl)hexahydroimidazo[1,5-a]pyrazin-3(2H)-one]
≥ 20 µM	23 nM	0.741 µM	21 nM	11 nM	282 nM	≥ 10 µM	5 nM	16 nM		CCc1c(F)ccc2cc(O)cc(-c3ncc4c(N5CCN6C(=O)NC(=O)C6C5)nc(OC[C@@]56CCCN5C[C@H](F)C6)nc4c3F)c12 (stereo partly drawn) [Example 381, 7-(7-(8-ethyl-7-fluoro-3-hydroxynaphthalen-1-yl)-8-fluoro-2-(((2R,7aS)-2-fluorohexahydro-1H-pyrrolizin-7a-yl)methoxy)pyrido[4,3-d]pyrimidin-4-yl) tetrahydroimidazo[1,5-a]pyrazine-1,3(2H,5H)-dione]
≥ 10 µM	13 nM	≥ 10 µM	8 nM	3 nM						CCc1c(F)ccc2cc(O)cc(-c3ncc4c(NCCC5NC(=O)NC5=O)nc(OC[C@@]56CCCN5C[C@H](F)C6)nc4c3F)c12 (stereo partly drawn) [Example 383, 5-(2-((7-(8-ethyl-7-fluoro-3-hydroxynaphthalen-1-yl)-8-fluoro-2-(((2R,7aS)-2-fluorohexahydro-1H-pyrrolizin-7a-yl)methoxy)pyrido[4,3-d]pyrimidin-4-yl)amino)ethyl) imidazolidine-2,4-dione]
0.903 µM	≤ 2 nM	1.46 µM	≤ 2 nM	≤ 2 nM					1000 nM	C#Cc1c(F)ccc2cc(O)cc(-c3ncc4c(N5CCCC6(C5)NC(=O)NC6=O)nc(OC[C@@]56CCCN5C[C@H](F)C6)nc4c3F)c12 (stereo partly drawn) [Example 397, 7-(7-(8-ethynyl-7-fluoro-3-hydroxynaphthalen-1-yl)-8-fluoro-2-(((2R,7aS)-2-fluorohexahydro-1H-pyrrolizin-7a-yl)methoxy)pyrido[4,3-d]pyrimidin-4-yl)-1,3,7-triazaspiro[4.5]decane-2,4-dione]
